Data: patent US20230340364A1, “Fabric Softening Compositions” (Colgate-Palmolive Company, priority 2020, published 2023)

Experiment: Dispersibility of the preservative into the finished product
Format: physicochemical
Conditions: preservative post-added (IPBC 0.2%, DGH 0.1%)
Procedure: For 90 kg batch, initial 20% of water is heated to 47.7° C., the agitation is set to 32.5 Hz, then color (1 min of agitation), lactic acid (1 min of agitation), etidronic acid (1 min of agitation) and PQ7 (3 min of agitation) is added. Afterward, the pre-heated esterquat at 60-65° C. is added for 10 seconds and mixture for 5 min. After esterquat addition, the 75% of the remaining water (15° C.) is added and mixed for 5 min more. The final composition is completed with the addition of the rest of the components keeping the agitation at 35 Hz; thickener (10 min of agitation), blend of slurry fragrance capsules (water/capsules; 10:1) (5 min of agitation) and oil perfume (10 min of agitation). For the reference sample, 5% of additional water is post-added to the mixture (5 min of agitation). In the case of the control sample, 0.02% of DPIII is post added with the remaining water to cover the % of hole (5 min of agitation). For the alternative test compositions with IPBC, IPBC is post-added at 0.2% as is. […]
The negative control, positive control, Test composition 1, and Test composition 2, described in Table 1 of Example 1 are first evaluated for their dispersibility into the product and their impact on the viscosity, pH and stability (predictive methods). […] No significant difference in viscosity, pH and stability are identified for all the evaluated samples.

SMILES	dispersibility by being directly post-added into the finished product
CCCCNC(=O)OCC#CI [IPBC, 3-iodo-2-propynyl butylcarbamate]	acceptable dispersibility
CCCCCCCCCCCCNC(=N)N.Cl [DGH, Dodecylguanidinee Hydrochloride]	acceptable dispersibility
